According to patent US10450288B2, “Hydroxy formamide derivatives and their use” (GLAXOSMITHKLINE INTELLECTUAL PROPERTY (NO.2) LIMITED, priority 2014, dated 2019):

Legend:
[1] = tested on: human cardiac fibroblasts; test: Cell-based inhibition assay of generation of procollagen I C-terminal propeptide (PICP), PICP ELISA; conditions: Cardiac fibroblast; human cardiac fibroblasts, crowding media, 24 to 48 hr, PICP ELISA of media; read-out: pIC50, PICP cellular inhibition assay (converted)
Outline: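 Cardiac fibroblasts (passage ≤6) treated 24–48 h at 37 °C with compounds in ficoll crowding medium containing 100 μM ascorbic acid, DMSO <0.3%. PICP secreted into the medium was quantified by ELISA, normalised to untreated controls and fitted to log(inhibitor)–response to give pIC50.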

[2] = tested on: human cardiac fibroblasts; test: Cell-based inhibition assay of mature collagen deposition (immunostaining); conditions: Cardiac fibroblast; human cardiac fibroblasts, crowding media, 24 to 48 hr, collagen I immunostaining normalized to nuclei; read-out: pIC50, mature collagen cellular inhibition assay (converted)
Experimental: Cell-Based Inhibition Assay of Generation of Procollagen I C-Terminal Propeptide (PICP) and Mature Collagen:
An adaptation of the collagen deposition assay described by Chen, C. Z. C., et al., British Journal of Pharmacology, 2009, 158, 1196-1209 was used to examine effect of compounds on procollagen I processing and collagen deposition. In the adapted assay, human cardiac fibroblasts were utilized. Processing of procollagen I was determined by a PICP ELISA assay and deposition of mature collagen was determined by immunostaining.
Human cardiac fibroblasts were cultured and maintained until passage 6 in FGM-3 media (Lonza, #CC-3132) in a 37° C. humidified incubator with 5% CO2. They were then seeded in 96-well black wall, clear bottom plates at 10,000 to 15,000 cells per well in eagle's minimum essential media (EMEM, ATCC #30-2003) containing 10% fetal bovine serum (FBS, Life Technologies #10082147), 1% Glutamax (Life Technologies #35050061) and 1% Penicillin and Streptomycin (Life Technologies #15070063). These cultures were placed in 37° C. incubator. The next day, media were removed by aspiration and cells were rinsed with phosphate buffered saline. Crowding media (also called ficoll media) was prepared by adding 112.5 mg/ml of ficoll70 and 75 mg/ml ficoll400 (GE healthcare #17-0310-10 and 17-0300-10, respectively), 100 μM ascorbic acid, 1% Glutamax and 1% Penicillin and Streptomycin to EMEM media. Test compounds (dissolved in DMSO) were diluted into crowding media and then added to the cells. Final concentration of DMSO in crowding media was less than 0.3%. Cells were treated for 24 to 48 hr in a 37° C. incubator. At the end of the treatment period, cell media were collected. The level of PICP in the media were determined by a PICP ELISA assay (Quidel #8003) following the manufacturer's protocol. Potencies of test compounds were calculated by fitting PICP levels, relative to untreated controls, to log (inhibitor) vs. response equation using Graphpad Prism software 5.0 and expressed as pIC50.
For some compounds, deposition of mature collagen was measured by immunostaining in addition to PICP levels. At the end of the treatment period, cells on culture plate were fixed with 100% methanol (prechilled to −20° C.) for 10 min. Then the cells were immunostained with mouse anti-mature collagen I antibody (1:500 dilution, Sigma#C2456), anti-mouse secondary antibody Alexa647 (1:500 dilution, Invitrogen#A21236) and Hoechst (for nuclei, 2 μg/ml, Invitrogen#H3596). Fluorescent image acquisition was done using the Operetta High Content Imaging system (Perkin Elmer). For each image field, the intensity of mature collagen staining was normalized with the number of nuclei. Normalized collagen levels were used to calculate the potency of test compounds with Graphpad Prism software, as described above.

| Compound | IC50 [1] [nM] | IC50 [2] [nM] |
| --- | --- | --- |
| CCCCC[C@@H](C(=O)NCNC(=O)c1ccc(-c2ccc(C(=O)N[C@@H](CC(=O)O)C(=O)O)c(OCC)c2)o1)[C@@H](CC)N(O)C=O [Example 74, (S)-2-(2-ethoxy-4-(5-((((R)-2-((R)-1-(N-hydroxyformamido)propyl)heptanamido)methyl)carbamoyl)furan-2-yl)benzamido)succinic acid] | < 3980 | < 1000 |
| CCCCC[C@@H](C(=O)NCNC(=O)c1ccc(-c2ccc(CC(=O)N[C@@H](CC(=O)O)C(=O)O)c(OCC)c2)o1)[C@@H](CC)N(O)C=O [Example 75, (S)-2-(2-(2-ethoxy-4-(5-((((R)-2-((R)-1-(N-hydroxyformamido)propyl)heptanamido)methyl)carbamoyl)furan-2-yl)phenyl)acetamido) succinic acid] | < 3980 | < 1000 |
| CCCCC[C@@H](C(=O)NCNC(=O)c1ccc(-c2cc(OCC)cc(C(=O)N[C@@H](CC(=O)O)C(=O)O)c2)o1)[C@@H](CC)N(O)C=O [Example 77, (S)-2-(3-ethoxy-5-(5-((((R)-2-((R)-1-(N-hydroxyformamido)propyl)heptanamido)methyl)carbamoyl)furan-2-yl)benzamido) succinic acid] | < 3980 | < 1000 |
| CCCCC[C@@H](C(=O)NCNC(=O)c1ccc(-c2cccc(C3(C(=O)O)CC3)c2)o1)[C@@H](CC)N(O)C=O [Example 80, 1-(3-(5-((((R)-2-((R)-1-(N-hydroxyformamido)propyl)heptanamido)methyl)carbamoyl)furan-2-yl)phenyl) cyclopropanecarboxylic acid] | < 3980 | < 1000 |
| CCCCC[C@@H](C(=O)NCNC(=O)c1ccc(-c2cc(OCC)cc(C(=O)O)c2O)o1)[C@@H](CC)N(O)C=O [Example 81, 5-ethoxy-2-hydroxy-3-(5-((((R)-2-((R)-1-(N-hydroxy-formamido)propyl)heptanamido)methyl)carbamoyl)furan-2-yl)benzoic acid] | < 3980 | < 1000 |
| CCCCC[C@@H](C(=O)NCNC(=O)c1ccc(-c2cc(OCCC)cc(C(=O)O)c2)o1)[C@@H](CC)N(O)C=O [Example 82] | < 3980 | < 1000 |
| CCCCC[C@@H](C(=O)NCNC(=O)c1ccc(-c2ccc(C(=O)N(CC(=O)O)CC(=O)O)c(OCC)c2)o1)[C@@H](CC)N(O)C=O [Example 86, 2,2′-((2-ethoxy-4-(5-((((R)-2-((R)-1-(N-hydroxy-formamido)propyl)heptanamido)methyl)carbamoyl)furan-2-yl)benzoyl)azanediyl) diacetic acid] | < 3980 | < 1000 |
| CCCCC[C@@H](C(=O)NCNC(=O)c1ccc(-c2cc(OCC)cc(C(=O)N[C@@H](CCC(=O)O)C(=O)O)c2)o1)[C@@H](CC)N(O)C=O [Example 93, (S)-2-(3-ethoxy-5-(5-((((R)-2-((R)-1-(N-hydroxy-formamido)propyl)heptanamido)methyl)carbamoyl)furan-2-yl)benzamido) pentanedioic acid] | < 3980 | < 1000 |
| CCCCC[C@@H](C(=O)NCNC(=O)c1ccc(-c2cc(OCC)cc(P(=O)(O)O)c2)o1)[C@@H](CC)N(O)C=O [Example 96, (3-ethoxy-5-(5-((((R)-2-((R)-1-(N-hydroxyformamido)propyl)heptanamido)methyl)carbamoyl)furan-2-yl)phenyl)phosphonic acid] | < 3980 | < 1000 |
| CCCCC[C@@H](C(=O)NCNC(=O)c1ccc(-c2ccc(P(=O)(O)O)c(OCC)c2)o1)[C@@H](CC)N(O)C=O [Example 98, (2-ethoxy-4-(5-((((R)-2-((R)-1-(N-hydroxyformamido)propyl)heptanamido)methyl)carbamoyl)furan-2-yl)phenyl)phosphonic acid] | < 3980 | < 1000 |
| CCCCC[C@@H](C(=O)NCNC(=O)c1ccc(-c2cc(CP(=O)(O)O)cc(OCC)c2)o1)[C@@H](CC)N(O)C=O [Example 99, (3-ethoxy-5-(5-((((R)-2-((R)-1-(N-hydroxy-formamido)propyl)heptanamido)methyl)carbamoyl)furan-2-yl)benzyl) phosphonic acid] | < 3980 | < 1000 |
| CCCCC[C@@H](C(=O)NCNC(=O)c1ccc(-c2cc(OCC)c(F)c(C(=O)O)c2)o1)[C@@H](CC)N(O)C=O [Example 111, 3-ethoxy-2-fluoro-5-(5-((((R)-2-((R)-1-(N-hydroxy-formamido)propyl)heptanamido)methyl)carbamoyl)furan-2-yl)benzoic acid] | < 3980 | < 1000 |
| CCCCC[C@@H](C(=O)NCNC(=O)c1ccc(-c2cc(O)cc(C(=O)O)c2)o1)[C@@H](CC)N(O)C=O [Example 112, 3-hydroxy-5-(5-((((R)-2((R)-1-(N-hydroxyformamido)propyl)heptanamido)methyl)carbamoyl)furan-2-yl)benzoic acid] | < 3980 | < 1000 |
| CCCCC[C@@H](C(=O)NCNC(=O)c1ccc(-c2cc(OCC(=O)O)cc(C(=O)O)c2)o1)[C@@H](CC)N(O)C=O [Example 113, 3-(carboxymethoxy)-5-(5-((((R)-2-((R)-1-(N-hydroxformamido)propyl)heptanamido)methyl)carbamoyl)furan-2-yl)benzoic acid] | < 3980 | < 1000 |
| CCCCC[C@@H](C(=O)NCNC(=O)c1ccc(-c2cc(OCC(=O)O)cc(C(=O)O)c2O)o1)[C@@H](CC)N(O)C=O [Example 121, 5-(carboxymethoxy)-2-hydroxy-3-(5-((((R)-2-((R)-1-(N-hydroxyformamido)propyl)heptanamido)methyl)carbamoyl)furan-2-yl)benzoic acid] | < 3980 | < 1000 |
| CCOc1cc(C(=O)N(CC(=O)O)CC(=O)O)cc(-c2ccc(C(=O)NCNC(=O)[C@H](CCc3ccc(F)cc3F)[C@@H](CC)N(O)C=O)o2)c1 [Example 122, 2,2′-((3-(5-((((2R,3R)-2-(2,4-difluorophenethyl)-3-(N-hydroxyformamido)pentanamido)methyl)carbamoyl)furan-2-yl)-5-ethoxybenzoyl)azanediyl)diacetic acid] | < 3980 | < 1000 |
| CCOc1cc(-c2ccc(C(=O)NCNC(=O)[C@H](CCc3ccc(F)cc3F)[C@@H](CC)N(O)C=O)o2)ccc1C(=O)N[C@@H](CC(=O)O)C(=O)O [Example 123, (S)-2-(4-(5-((((2R,3R)-2-(2,4-difluorophenethyl)-3-(N-hydroxyformamido)pentanamido)methyl)carbamoyl)furan-2-yl)-2-ethoxybenzamido) succinic acid] | < 3980 | < 1000 |
| CCOc1cc(-c2ccc(C(=O)NCNC(=O)[C@H](CCc3ccccc3)[C@@H](CC)N(O)C=O)o2)ccc1C(=O)N(CC(=O)O)CC(=O)O [Example 124, 2,2′-((2-ethoxy-4-(5-((((2R,3R)-3-(N-hydroxyformamido)-2-phenethylpentanamido)methyl)carbamoyl)furan-2-yl)benzoyl)azanediyl) diacetic acid] | < 3980 | < 1000 |
| CCCCC[C@@H](C(=O)NCNC(=O)c1ccc(-c2ccc(C(=O)N[C@@H](CC(=O)O)C(=O)O)c(OCC(=O)O)c2)o1)[C@@H](CC)N(O)C=O [Example 126, (S)-2-(2-(carboxymethoxy)-4-(5-((((R)-2-((R)-1-(N-hydroxyformamido)propyl)heptanamido)methyl)carbamoyl)furan-2-yl)benzamido) succinic acid] | < 3980 | < 1000 |
| CCOc1cc(-c2ccc(C(=O)NCNC(=O)[C@H](CCc3ccccc3)[C@@H](CC)N(O)C=O)o2)ccc1C(=O)N[C@@H](CC(=O)O)C(=O)O [Example 127, (S)-2-(2-ethoxy-4-(5-((((2R,3R)-3-(N-hydroxyformamido)-2-phenethylpentanamido)methyl)carbamoyl)furan-2-yl)benzamido) succinic acid] | < 3980 | < 1000 |
